Data on 10 compounds can be found in ChEMBL document CHEMBL1123008, “Synthesis and antinociceptive activity of 4-(cyclopropylmethyl)-3,4,5,6-tetrahydro-2H-1,5-methano-1, 4-benzodiazocin-9-amine and congeners” (1985).

Holding throughout (type): functional
Experiment [1] concerns Rattus norvegicus. In words: In vivo narcotic antagonist activity in rat after subcutaneous administration at 60 mg/kg & lethal at 120 mg/kg.
Experiment [2] deals with Rattus norvegicus. Kind of experiment: In vivo narcotic antagonist activity by rat phenazocine antagonism test through subcutaneous administration.
In experiment [3] the test system is Mus musculus. Kind of experiment: Maximum analgesic agonist activity obtained by mouse acetylcholine writhing test through subcutaneous administration at 75 mg/kg. The settings on record: sc. On the technique in general: In writhing tests, fewer writhes than in controls are read as antinociception.
The test system of experiment [4] is Mus musculus. Kind of experiment: Analgesic agonist activity by mouse acetylcholine writhing test through subcutaneous administration. The conditions noted are these: sc.
The subject of experiment [5] is Rattus norvegicus. In words: In vivo narcotic antagonist activity in rat after subcutaneous administration at 80 mg/kg. The conditions noted are these: sc.
The subject of experiment [6] is Rattus norvegicus. Kind of experiment: In vivo narcotic antagonist activity by rat phenylquinone test through subcutaneous administration. The settings on record: sc.
For experiment [7], the system named is Rattus norvegicus. In words: In vivo narcotic antagonist activity by AD50 vs. meperidine through oral administration.
The test system of experiment [8] is Rattus norvegicus. Kind of experiment: In vivo narcotic antagonist activity in rat after oral administration of the compound.
Experiment [9] relates to Rattus norvegicus. In words: In vivo narcotic antagonist activity by AD50 vs. morphine through oral administration.
In experiment [10] the test system is Rattus norvegicus. Kind of experiment: Analgesic agonist activity by rat tail-flick test through oral administration; Inactive at 200 mg/kg. On the technique in general: Thermal pain tests record how soon the animal reacts.
Experiment [11] has as its system Rattus norvegicus. In words: In vivo narcotic antagonist activity by rat phenylquinone test through oral administration.
In experiment [12] the test system is Rattus norvegicus. Kind of experiment: In vivo narcotic antagonist activity by AD50 vs. morphine through subcutaneous administration.
The test system of experiment [13] is Rattus norvegicus. Kind of experiment: Analgesic agonist activity by rat tail-flick test through subcutaneous administration; Inactive at 120 mg/kg. The conditions noted are these: sc.
Experiment [14] has as its system Rattus norvegicus. Kind of experiment: In vivo narcotic antagonist activity by AD50 vs. meperidine through subcutaneous administration.
For experiment [15], the system named is Rattus norvegicus. Kind of experiment: In vivo narcotic antagonist activity in rat after subcutaneous administration of the compound.
The species named for experiment [16] is Rattus norvegicus. In words: animal or person. The conditions noted are these: in Mus musculus, sc.
Experiment [17] deals with Rattus norvegicus. In words: In vivo narcotic antagonist activity by rat phenazocine antagonism test through subcutaneous administration at 10 mg/kg.
Experiment [18] concerns Rattus norvegicus. Kind of experiment: In vivo narcotic antagonist activity in rat after subcutaneous administration at 10 mg/kg & convulsions at 20 mg/kg. The conditions noted are these: sc.
The subject of experiment [19] is Rattus norvegicus. In words: In vivo narcotic antagonist activity by rat phenazocine antagonism test through oral administration.
The subject of experiment [20] is Rattus norvegicus. Kind of experiment: Analgesic agonist activity by rat intracarotid bradykinin writhing test through subcutaneous administration. The conditions noted are these: sc.

`CCNc1ccc2c(c1)N1CCN(CC3CC3)C(C2)C1.Cl` (stereo not given) registered an Inhibition in experiment [1] of 17%. For the same compound, the AD50 in experiment [2] stood at 4.4 mg/kg.

`Nc1ccc2c(c1)N1CCN(CC3CC3)[C@@H](C2)C1` displayed an inhibition in vivo at 75 mg/kg in experiment [3] of 67%. Besides, it took a dose of 40 mg/kg to reach the 50% effect level in experiment [4] (ED50). This compound displayed an inhibition in vivo at 80 mg/kg in experiment [5] of 25%.

`Nc1ccc2c(c1)N1CCN(CC3CC3)C(C2)C1` (stereo not given): the ED50 in [6] came out at 1.8 mg/kg; in experiment [10], 1 mg/kg; in [11] it was 5.7 mg/kg; in [13], 1 mg/kg. Further, the AD50 in experiment [7] worked out at 4.8 mg/kg; in [8], 3.5 mg/kg; in [9], 13 mg/kg; in experiment [12], 8.6 mg/kg; in experiment [2], 1.6 mg/kg; in experiment [14] it was 3.3 mg/kg.

For `C=CCN1CCN2CC1Cc1ccc(N)cc12.CCS(=O)(=O)O` (stereo not given), the AD50 in experiment [15] stood at 1.6 mg/kg.

For the compound `CCS(=O)(=O)O.c1ccc2c(c1)CC1CN2CCN1CC1CC1` (stereo not given), the 50% effect level in experiment [13] (ED50) was put at a dose of 1 mg/kg. In addition, in experiment [15], the AD50 stood at 34 mg/kg.

As to `CN1CC[C@]23c4c5ccc(O)c4O[C@H]2[C@@H](O)C=C[C@H]3[C@H]1C5.CN1CC[C@]23c4c5ccc(O)c4O[C@H]2[C@@H](O)C=C[C@H]3[C@H]1C5.O=S(=O)(O)O`, the ED50 in experiment [16] is 0.21 mg/kg.

In experiment [17], `CCCCNc1ccc2c(c1)N1CCN(CC3CC3)C(C2)C1` (stereo not given) returned an AD50 of 1 mg/kg. In experiment [18], this compound gave an ED50 of 1 mg/kg.

For `Oc1ccc2c(c1)N1CCN(CC3CC3)C(C2)C1` (stereo not given), the AD50 in experiment [19] came out at 3.2 mg/kg; in experiment [2], 0.02 mg/kg. Also, the ED50 in [4] was found to be 10 mg/kg; in experiment [20] it was 37 mg/kg.

Regarding `Nc1ccc2c(c1)N1CCN(CC3CC3)[C@H](C2)C1`, in experiment [4], the ED50 amounted to 1 mg/kg. For the same compound, in [15], the AD50 came to 0.31 mg/kg.

As to `C=CCN1CC[C@]23c4c5ccc(O)c4O[C@H]2[C@@H](O)C=C[C@H]3[C@H]1C5.Cl` [NALORPHINE HYDROCHLORIDE], the values for the ED50 in [16] and in experiment [20] were 2.8 mg/kg and 0.24 mg/kg, respectively. Further, the AD50 in experiment [15] stood at 0.032 mg/kg.

Usually Inhibition stands for the drop in the measured response relative to a control, in per cent. Higher therefore signals a response far below the control. A word on the inhibition in vivo: it is the relative decrease from the control value, in per cent. Read a low inhibition in vivo as little suppression. Usually ED50 stands for the dose that gives a 50% effect, or the effect in half of the subjects. A high value points to a need for a large dose.
